Experimental findings from patent US20170088532A1, “INHIBITORS OF LPXC” (The Regents of the University of California, priority 2013, published 2017) are described below.

The target of the assay is T1, E. Coli LpxC (Escherichia coli, UniProt P0A725).
T1 sequence (P0A725 1-305): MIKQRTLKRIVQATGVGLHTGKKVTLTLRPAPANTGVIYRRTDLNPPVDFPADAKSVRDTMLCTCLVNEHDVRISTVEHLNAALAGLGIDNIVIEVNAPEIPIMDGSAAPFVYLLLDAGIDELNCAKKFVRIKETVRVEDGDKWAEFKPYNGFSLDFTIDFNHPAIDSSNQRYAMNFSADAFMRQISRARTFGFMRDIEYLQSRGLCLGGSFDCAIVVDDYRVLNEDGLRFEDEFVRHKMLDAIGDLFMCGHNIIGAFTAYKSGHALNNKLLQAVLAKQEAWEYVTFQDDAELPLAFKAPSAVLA
Kind of assay: Inhibition of LpxC from E. coli. The class given is biochemical. The settings on record: for inhibition at 50 µM: compound at 50 μM. An excerpt: Methods for assessing inhibition of LpxC are known in the art.

The mark [1] stands for this setting: Table 1, read-out: % Inhibition E. Coli LpxC at 50 μM.
Setting [2] is: Table 2, values in parentheses, read-out: (% Inhibition of E. Coli LpxC at 50 μM).

Like-named read-outs stand apart in the source and are kept apart here.

With `O=c1cc(CO)oc(CNc2ccc(-c3ccccc3)cc2)c1O` [Compound 010], the inhibition at 50 µM is, setting by setting: under setting [1], 39%; under setting [2], 39%.
In the case of `O=c1ccoc(CNc2ccc(-c3ccccc3)cc2)c1O` [Compound 013], the inhibition at 50 µM stood at 67% under setting [1] and 67% under setting [2].
In the case of `Cc1cc(=O)c(O)c(CNc2ccc(-c3ccccc3)cc2)o1` [Compound 014], the inhibition at 50 µM by setting is: under setting [1], 23%; under setting [2], 23%.
Turning to `COc1ccc(-c2ccc(NCc3oc(CO)cc(=O)c3O)cc2)cc1` [Compound 018, 3-hydroxy-6-(hydroxymethyl)-2-(((4′-methoxy-[1,1′-biphenyl]-4-yl)amino)methyl)-4H-pyran-4-one], the IC50 (E. Coli LpxC, Table 2, values without parentheses) was 12.7 µM. For the same compound, the inhibition at 50 µM under setting [1] is 81%.
For the compound `COc1ccc(-c2ccc(NCc3occc(=O)c3O)cc2)cc1` [Compound 027], the inhibition at 50 µM is, setting by setting: under setting [1], 13%; under setting [2], 13%.
Consider `COC(=O)c1cc(=O)c(O)c(CNc2ccc(-c3ccc(OC)cc3)cc2)o1` [Compound 035], for which the inhibition at 50 µM was 29% under setting [1] and 29% under setting [2].
